# From patent publication US6057371A, “Sigma receptor ligands and the use thereof” (Virginia Commonwealth University, priority 1992, dated 2000)
# Where a name gives a salt, the structure may show the parent alone.
# Target: T1, sigma-1 binding site (Cavia porcellus, UniProt Q60492)
# T1 construct: Guinea pig whole membrane preparations (P2 microsomal fraction); from tissue; host or cells: guinea pig membranes (P2 microsomal fraction), as described by Weber et al; brain inferred from the sister test b489
# T1 sequence (Q60492 whole entry): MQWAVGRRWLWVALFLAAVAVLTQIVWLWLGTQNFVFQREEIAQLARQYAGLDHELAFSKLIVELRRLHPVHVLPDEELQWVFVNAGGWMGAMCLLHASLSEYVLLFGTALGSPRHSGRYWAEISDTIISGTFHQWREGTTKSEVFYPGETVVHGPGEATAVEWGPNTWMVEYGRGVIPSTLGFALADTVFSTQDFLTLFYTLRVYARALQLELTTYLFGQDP
# Test: biochemical
# Design: species or system guinea pig
# Details: SIGMA-1 KI vs. 3H-PENTAZOCINE MEAN
# Method: [^3 H]DTG was purchased from DuPont/NEN.
# The radioactivity on the filters was determined by scintillation spectrometry at an efficiency of about 50% using Cytoscint (ICN) scintillation fluid.
row,Compound,Ki
1,"O=C(CCCN1CCC2(CC1)C(=O)NCN2c1ccccc1)c1ccc(F)cc1 [Spiperone, reference compound]",10000 nM
2,"CCN1CCC[C@H]1CNC(=O)c1c(OC)ccc(Br)c1OC [Remoxipride, reference compound]",312 nM

# Test system: sigma receptor
# Test: Sigma receptor binding, [^3 H]DTG, brain membranes (both sigma-1 and sigma-2 sites)
# Design: species or system guinea pig
# Details: Example 5
# Method: Sigma receptor binding assays using guinea pig brain membrane homogenates and the radioligand [^3 H]DTG were conducted as described by Weber et al.. […] Briefly, frozen whole guinea-pig brains (Biotrol, Indianapolis, Ind.) were homogenized in 10 volumes (w/v) of ice-cold 320 mM sucrose using a Brinkman polytron. The homogenate was centrifuged at 1,000× g for 20 minutes at 4° C. The supernatant was centrifuged at 20,000× g for 20 minutes at 4° C. The resulting pellet was resuspended in 10 initial volumes of 50 mM Tris/HCl buffer at pH 7.4 and centrifuged at 20,000× g for 20 minutes at 4° C. The resulting pellet was resuspended in 5 initial volumes ice-cold 50 mM Tris/Hcl […], and the final volume was adjusted to yield a protein concentration of 3 mg/ml. Aliquots of 20-ml were stored at -70° C. until used, with no detectable loss of binding.
# The protein concentration in the 1-ml final incubation volume was 800 ug/ml, corresponding to 32 mg of brain tissue (original wet weight) and to a tissue concentration within the linear range for specific binding. […] Incubations were terminated after 90 minutes at room temperature by addition of 4 ml of ice-cold 50 mM Tris/HCl (pH 7.4) and rapid filtration of the membrane suspension through Whatman GF/B glass-fiber filters under vacuum, using a 48-well cell harvester (Brandel). The filters were washed 2 times with 4 ml of 50 mM Tris/HCl (pH 7.4). Each filter was suspended in 10 ml Cytoscint (ICI), and radioactivity was measured by liquid scintillation spectrometry at a counting efficiency of approximately 50%. IC50 values were determined by non-linear regression analyis.
# Further sigma receptor binding assays against [^3 H]DTG and 5HT-1A binding assays were conducted according to the procedure outlined in the previous examples.
# Radioligand Binding. […] Briefly, membranes (P2 microsomal fraction) were diluted 1:3 with 50 mM Tris HCl (pH 7.4) and 0.4 mL was combined with 50 μL [^3 H]DTG (1-2 nM final concentration) and 50 μL of competing drug or buffer. After 90 min at room temperature, incubation was terminated by rapid filtration under vacuum through Whatman GF/B glass fiber filters using a Brandel 48-well cell harvester. Filters were washed three times with 5 mL of cold Tris HCl buffer and each filter was suspended in 5 mL of Cytoscint (ICN Biomedical). Radioactivity was measured by liquid scintillation spectrometry at a counting efficiency of 50%.
row,Compound,"affinity for the sigma receptor, words"
1,CCCc1ccc(CC(C)N(C)CCCc2ccccc2)cc1 (centres unmarked),highest and most selective affinity for the sigma receptor

# Same assay, conditions: Example 6
row,Compound,"change in sigma affinity, words"
1,"CN(CCCCCC1CCCCC1)CC1CCCCC1.Cl [Compound 152, N-Methyl-N-cyclohexylmethyl-5-cyclohexylpentylamine Hydrochloride]",doubles affinity
2,CN(CCCCCc1ccccc1)CCCc1ccccc1 [Compound 136],doubles affinity

# Same assay, conditions: Examples 5 and 6; [^3 H]DTG
row,Compound,change in sigma receptor affinity vs. analog
1,"O=C(O)C(=O)O.c1ccc(CCCCCNc2ccccc2)cc1 [Compound 135, N-Phenyl-5-phenyl pentyl amine Hydrogen Oxal ate]",6 fold

# Same assay, conditions: Table 6; [^3 H]DTG
row,Compound,IC50
1,O=C(CCCCN1CCC(c2ccccc2)CC1)c1ccc(Cl)cc1 [Compound 160],0.62 nM
2,COc1ccc(CCNCCCCCc2ccccc2)cc1 [Compound 146],2.38 nM
3,CN1CCc2ccccc2C(c2ccccc2)C1 (centres unmarked) [Compound 102],6690 nM
4,O=C(CCCCN1CC=C(c2ccc(F)cc2)CC1)c1ccc(Cl)cc1 [Compound 180],2.24 nM
5,O=C(CCCCN1CCC(c2ccc(Cl)cc2)CC1)c1ccc(Cl)c(Cl)c1 [Compound 184],1.98 nM
6,c1ccc(CN2CCCCC2)cc1 [Compound 147],117 nM
7,c1ccc(CNCc2ccccc2)cc1 [Compound 109],184 nM
8,"CCCCCCN(C)CCc1ccccc1 [Compound 130, N-Methyl-N-hexyl-2-phenylethylamine Hydrogen Oxalate]",4.23 nM
9,COc1cccc(CCNCCCCCc2ccccc2)c1 [Compound 145],1.63 nM
10,OC1(c2ccccc2)CCN(CCc2ccccc2)CC1 [Compound 148],6.43 nM
11,C1CCC(CCCCCN2CCCCC2)CC1 [Compound 150],0.96 nM
12,c1ccc(CCCCCN2CC3CCC(CC3)C2)cc1 [Compound 190],1.07 nM
13,O=C1c2ccccc2C(=O)N1CCCCN1CCN(Cc2ccccc2)CC1 [Compound 119],21.4 nM
14,O=C(CCCCN1CCCCC1)c1ccc(F)cc1 [Compound 177],7.37 nM
15,c1ccc(CCCCCN2CCN(CCCCCc3ccccc3)CC2)cc1 [Compound 138],2.67 nM
16,CN1CCC(OC(c2ccccc2)c2ccccc2)CC1 [Compound 186],656 nM
17,O=C(CCCCN1CCCCC1)c1cccc(Cl)c1 [Compound 170],4.18 nM
18,COc1ccc(CCCCCN2CCC(c3ccccc3)CC2)cc1 [Compound 165],1.27 nM
19,CN1C2CCC1CC(O)(c1ccccc1)C2 (centres unmarked) [Compound 154],3960 nM
20,COc1ccccc1C1(O)CCNCC1 [Compound 61],14800 nM
21,O=C(CCCCN1CCC(c2ccc(Cl)cc2)CC1)c1ccc(Cl)cc1 [Compound 183],1.97 nM

row,Compound,IC50
1,O=C(c1ccccc1)N1CCNCC1 [Compound 54],11800 nM
2,CCN(CC)CCOC(=O)C(c1ccccc1)c1ccccc1 [Compound 187],50.6 nM
3,COc1ccc(CCCCCN2CCCCC2)cc1 [Compound 164],5.19 nM
4,O=C(CCCCN1CCCCC1)C1CCCC1 [Compound 189],13.5 nM
5,COc1ccccc1CCNCCCCCc1ccccc1 [Compound 144],4.39 nM
6,CN1CCC(O)(c2ccc(Cl)cc2)CC1 [Compound 156],131 nM
7,C(/C=C/c1ccc2c(c1)OCO2)=C\CN1CCCCC1 [Compound 191],8.14 nM
8,CCC[C@@H](Cc1ccccc1)N(C)CCCc1ccccc1 [Compound 116],10.1 nM
9,CCCN(CCCc1ccccc1)[C@@H](C)Cc1ccccc1 [Compound 133],6.44 nM
10,O=C(CCCCN1CCC(c2ccccc2)CC1)c1ccc(F)cc1 [Compound 178],0.896 nM
11,"CN(CCCCCC1CCCCC1)CC1CCCCC1.Cl [Compound 152, N-Methyl-N-cyclohexylmethyl-5-cyclohexylpentylamine Hydrochloride]",1.76 nM
12,Oc1ccccc1CCNCCCCCc1ccccc1 [Compound 173],17.2 nM
13,O=C(CCCCN1CCC(c2ccccc2)CC1)c1cccc(Cl)c1 [Compound 171],1.19 nM
14,CCCC(Cc1ccccc1)NCCCc1ccccc1 (centres unmarked) [Compound 100],25.6 nM
15,Clc1ccc(CCCCCN2CCC(c3ccccc3)CC2)cc1 [Compound 167],1.96 nM
16,CCN(CC)CCOC(=O)C1c2ccccc2-c2ccccc21 [Compound 188],174 nM
17,O=C(CCCCN1CCC(c2ccc(F)cc2)CC1)c1ccc(Cl)cc1 [Compound 181],1.08 nM
18,"Oc1cccc(CCNCCCCCc2ccccc2)c1 [Compound 172, N-[2-(3-hydroxyphenyl)ethyl]-5-phenylpentylamine Hydrobromide]",7.46 nM
19,CN(CCc1ccccc1)CCc1ccccc1 [Compound 108],37.9 nM
20,COc1cccc(C(=O)CCCCN2CCCCC2)c1 [Compound 169],22.8 nM
21,CN1CCC(O)(c2ccccc2)CC1 [Compound 155],1870 nM

row,Compound,IC50
1,c1ccc(CCCNCCc2ccc3ccccc3c2)cc1 [Compound 88],53.4 nM
2,CC(C)(C)C1(O)CCN(CCc2ccccc2)CC1 [Compound 149],21.5 nM
3,CN(CCCCCc1ccccc1)CCCc1ccccc1 [Compound 136],1.78 nM
4,"C(CCNCC1CCCCC1)CCC1CCCCC1 [Compound 151, H-Cyclohexylmethyl-5-cyclohexylpentylamine Hydrochloride]",1.39 nM
5,OC1(c2ccccc2)CCNC1 (centres unmarked) [Compound 157],6110 nM
6,CCCNC1CCc2ccccc2C1 (centres unmarked) [Compound 63],763 nM
7,O=C(CCCCN1CC=C(c2ccc(Cl)cc2)CC1)c1ccc(Cl)cc1 [Compound 182],4.68 nM
8,O=C(CCCN1CCCCC1)c1ccc(F)cc1 [Compound 175],42.9 nM
9,c1cnc(N2CCNCC2)nc1 [Compound 107],10000 nM
10,O=C1c2ccccc2C(=O)N1CCN1CCN(c2ccccc2)CC1 [Compound 95],17000 nM
11,"O=C(O)C(=O)O.c1ccc(CCCCCNc2ccccc2)cc1 [Compound 135, N-Phenyl-5-phenyl pentyl amine Hydrogen Oxal ate]",13.5 nM
12,"CCCCCCN(C)CCC [Compound 131, N-Methyl-N-propylhexylamine Hydrogen Oxalate]",46.9 nM
13,OC1(c2ccccc2)CC2CCC(C1)N2CCCCCc1ccccc1 (centres unmarked) [Compound 153],2.21 nM
14,COc1cccc(C(=O)CCCCN2CCC(c3ccccc3)CC2)c1 [Compound 174],1.1 nM
15,COc1ccc(C(=O)CCCCN2CCCCC2)cc1 [Compound 161],10.9 nM
16,O=C(CCCCN1CCC(O)(c2ccc(Cl)cc2)CC1)c1ccc(F)cc1 [Compound 179],2.82 nM
17,c1ccc(C2CCNCC2)cc1 [Compound 58],2050 nM
18,COc1ccc(C(=O)CCCCN2CCC(c3ccccc3)CC2)cc1 [Compound 162],0.9 nM
19,O=C(CCCCN1CCCCC1)c1ccc(Cl)cc1 [Compound 159],1.3 nM
20,O=C(CCCCN1CCC(c2ccccc2)CC1)c1ccccc1 [Compound 166],1.03 nM

# Same assay, conditions: Table 7; Phenyl-(CH2)x -NH--(CH2)y -Phenyl; read-out: Ki
row,Compound,Ki
1,"c1ccc(CCCCNCCCc2ccccc2)cc1 [x=3, y=4]",7 nM
2,"c1ccc(CCCCNCCCCc2ccccc2)cc1 [x=4, y=4]",6.7 nM
3,"c1ccc(CNCc2ccccc2)cc1 [x=1, y=1]",175 nM
4,"c1ccc(CCCCCCNCCCc2ccccc2)cc1 [x=3, y=6]",2.6 nM

# Same assay, conditions: running text, Examples 5 and 6; read-out: sigma receptor Ki
row,Compound,Ki
1,N-(3-phenylpropyl)isopropylamine,22 nM
2,"CCCCCCN(C)CCc1ccccc1 [Compound 130, N-Methyl-N-hexyl-2-phenylethylamine Hydrogen Oxalate]",3.8 nM
3,CCCN(C)CCCCCc1ccccc1 [Compound 122],2.4 nM
4,"O=C(O)C(=O)O.c1ccc(CCCCCNc2ccccc2)cc1 [Compound 135, N-Phenyl-5-phenyl pentyl amine Hydrogen Oxal ate]",12 nM
5,"CCCCCCN(C)CCC [Compound 131, N-Methyl-N-propylhexylamine Hydrogen Oxalate]",45 nM
